Test results reported in patent US10131652B2, “Pyrimidinyloxy benzene derivatives as herbicides” (E. I. DU PONT DE NEMOURS AND COMPANY, priority 2014, dated 2018).

How the values were obtained:
[1] = tested on: late watergrass (Echinochloa oryzicola); assay: Test G flooded paddy rice/weed plant response; assay type: in vivo; conditions: Flood, 21 days, scale 0 to 100 (0 no effect, 100 complete control)
Text: (§1) Three plastic pots (ca. 16-cm diameter) per rate were partially filled with sterilized Tama silt loam soil comprising a 35:50:15 ratio of sand, silt and clay and 2.6% organic matter. Separate plantings for each of the three pots were as follows. Seeds from the U.S. of monochoria (Monochoria vaginalis), small-flower umbrella sedge (Cyperus difformis), hardstem bulrush (Scirpus juncoides), and redstem (purple redstem, Ammannia coccinea), were planted into one 16-cm pot for each rate. Seeds from the U.S. of rice flatsedge (Cyperus iria), bearded sprangletop (Leptochloa fascicularis), one stand of 9 or 10 water seeded rice seedlings (Indica rice, Oryza sativa), and two stands of 3 or 4 transplanted rice seedlings (Oryza sativa cv. ‘Japonica—M202’) were planted into one 16-cm pot for each rate. Seeds from the U.S. of bamyardgrass (Echinochloa crus-galli), and late watergrass (Echinochloa oryzicola) were planted into one 16-cm pot for each rate. Plantings were sequential so that crop and weed species were at the 2.0 to 2.5-leaf stage at time of treatment.
(§2) Potted plants were grown in a greenhouse with day/night temperature settings of 30/27° C., and supplemental balanced lighting was provided to maintain a 16-hour photoperiod. Test pots were maintained in the greenhouse until test completion.
(§3) At time of treatment, test pots were flooded to 3 cm above the soil surface, treated by application of test compounds directly to the paddy water, and then maintained at that water depth for the duration of the test. Effects of treatments on rice and weeds were visually evaluated by comparison to untreated controls after 21 days. Plant response ratings, summarized in Table G, are based on a scale of 0 to 100 where 0 is no effect and 100 is complete control. A dash (-) response means no test result.

[2] = tested on: bearded sprangletop (Leptochloa fascicularis); assay: Test G flooded paddy rice/weed plant response; assay type: in vivo; conditions: Flood, 21 days, scale 0 to 100 (0 no effect, 100 complete control)
Text: as §1, §2, §3

[3] = tested on: redstem (purple redstem, Ammannia coccinea); assay: Test G flooded paddy rice/weed plant response; assay type: in vivo; conditions: Flood, 21 days, scale 0 to 100 (0 no effect, 100 complete control)
Text: as §1, §2, §3

[4] = tested on: rice flatsedge (Cyperus iria); assay: Test G flooded paddy rice/weed plant response; assay type: in vivo; conditions: Flood, 21 days, scale 0 to 100 (0 no effect, 100 complete control)
Text: as §1, §2, §3

[5] = tested on: small-flower umbrella sedge (Cyperus difformis); assay: Test G flooded paddy rice/weed plant response; assay type: in vivo; conditions: Flood, 21 days, scale 0 to 100 (0 no effect, 100 complete control)
Text: as §1, §2, §3

[6] = tested on: monochoria (Monochoria vaginalis); assay: Test G flooded paddy rice/weed plant response; assay type: in vivo; conditions: Flood, 21 days, scale 0 to 100 (0 no effect, 100 complete control)
Text: as §1, §2, §3

[7] = tested on: hardstem bulrush (Scirpus juncoides); assay: Test G flooded paddy rice/weed plant response; assay type: in vivo; conditions: Flood, 21 days, scale 0 to 100 (0 no effect, 100 complete control)
Text: as §1, §2, §3

[8] = tested on: transplanted rice seedlings (Oryza sativa cv. ‘Japonica—M202’); assay: Test G flooded paddy rice/weed plant response; assay type: in vivo; conditions: Flood, 21 days, scale 0 to 100 (0 no effect, 100 complete control)
Text: as §1, §2, §3

[9] = tested on: water seeded rice seedlings (Indica rice, Oryza sativa); assay: Test G flooded paddy rice/weed plant response; assay type: in vivo; conditions: Flood, 21 days, scale 0 to 100 (0 no effect, 100 complete control)
Text: as §1, §2, §3

[10] = tested on: barnyardgrass (Echinochloa crus-galli); assay: Test G flooded paddy rice/weed plant response; assay type: in vivo; conditions: Flood, 21 days, scale 0 to 100 (0 no effect, 100 complete control)
Text: as §1, §2, §3

[11] = tested on: Russian thistle (Salsola iberica); assay: Test E pre-/postemergence plant response; assay type: in vivo; conditions: scale 0 to 100
Procedure, shortened: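 Visual scores on a 0–100 scale (100 = complete control) were assigned against untreated controls 7–21 days after treatment in a controlled environment. Compounds, formulated with solvent plus surfactant, were applied to pre-emergence silt-loam sowings or to 1- to 4-leaf plants (2–18 cm) in potting medium.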

FC(F)c1cc(-c2ccccc2Oc2ncc(Cl)cn2)no1 [Compound 35, 5-chloro-2-[2-[5-(difluoromethyl)-3-isoxazolyl]phenoxy]pyrimidine]
Plant response rating, Watergrass, Late ([1]; 32 g ai/ha): 0 | Plant response rating, Watergrass, Late ([1]; 64 g ai/ha): 30 | Plant response rating, Watergrass, Late ([1]; 125 g ai/ha): 40 | Plant response rating, Watergrass, Late ([1]; 250 g ai/ha): 100 | Plant response rating, Sprangletop, Brdd. ([2]; 32 g ai/ha): 60 | Plant response rating, Sprangletop, Brdd. ([2]; 64 g ai/ha): 100 | Plant response rating, Sprangletop, Brdd. ([2]; 125 g ai/ha): 100 | Plant response rating, Sprangletop, Brdd. ([2]; 250 g ai/ha): 100 | Plant response rating, Redstem ([3]; 32 g ai/ha): 0 | Plant response rating, Redstem ([3]; 64 g ai/ha): 85 | Plant response rating, Redstem ([3]; 125 g ai/ha): 90 | Plant response rating, Redstem ([3]; 250 g ai/ha): 100 | Plant response rating, Flatsedge, Rice ([4]; 32 g ai/ha): 100 | Plant response rating, Flatsedge, Rice ([4]; 64 g ai/ha): 100 | Plant response rating, Flatsedge, Rice ([4]; 125 g ai/ha): 100 | Plant response rating, Flatsedge, Rice ([4]; 250 g ai/ha): 100 | Plant response rating, Sedge, Umbrella ([5]; 32 g ai/ha): 0 | Plant response rating, Sedge, Umbrella ([5]; 64 g ai/ha): 98 | Plant response rating, Sedge, Umbrella ([5]; 125 g ai/ha): 100 | Plant response rating, Sedge, Umbrella ([5]; 250 g ai/ha): 100 | Plant response rating, Monochoria ([6]; 32 g ai/ha): 98 | Plant response rating, Monochoria ([6]; 64 g ai/ha): 100 | Plant response rating, Monochoria ([6]; 125 g ai/ha): 100 | Plant response rating, Monochoria ([6]; 250 g ai/ha): 100 | Plant response rating, Bulrush, Hardstem ([7]; 32 g ai/ha): 0 | Plant response rating, Bulrush, Hardstem ([7]; 64 g ai/ha): 95 | Plant response rating, Bulrush, Hardstem ([7]; 125 g ai/ha): 100 | Plant response rating, Bulrush, Hardstem ([7]; 250 g ai/ha): 100 | Plant response rating, Rice, Transplanted ([8]; 32 g ai/ha): 15 | Plant response rating, Rice, Transplanted ([8]; 64 g ai/ha): 30 | Plant response rating, Rice, Transplanted ([8]; 125 g ai/ha): 45 | Plant response rating, Rice, Transplanted ([8]; 250 g ai/ha): 100 | Plant response rating, Rice, Water Seeded ([9]; 32 g ai/ha): 60 | Plant response rating, Rice, Water Seeded ([9]; 64 g ai/ha): 70 | Plant response rating, Rice, Water Seeded ([9]; 125 g ai/ha): 100 | Plant response rating, Rice, Water Seeded ([9]; 250 g ai/ha): 100 | Plant response rating, Barnyardgrass ([10]; 32 g ai/ha): 30 | Plant response rating, Barnyardgrass ([10]; 64 g ai/ha): 45 | Plant response rating, Barnyardgrass ([10]; 125 g ai/ha): 100 | Plant response rating, Barnyardgrass ([10]; 250 g ai/ha): 100

Fc1cccc(Oc2ncc(Cl)cn2)c1-c1cc(C(F)F)on1 [Compound 55, 5-chloro-2-[2-[5-(difluoromethyl)-3-isoxazolyl]-3-fluorophenoxy]pyrimidine]
Plant response rating, Watergrass, Late ([1]; 32 g ai/ha): 0 | Plant response rating, Watergrass, Late ([1]; 64 g ai/ha): 0 | Plant response rating, Watergrass, Late ([1]; 125 g ai/ha): 75 | Plant response rating, Watergrass, Late ([1]; 250 g ai/ha): 100 | Plant response rating, Sprangletop, Brdd. ([2]; 32 g ai/ha): 45 | Plant response rating, Sprangletop, Brdd. ([2]; 64 g ai/ha): 80 | Plant response rating, Sprangletop, Brdd. ([2]; 125 g ai/ha): 100 | Plant response rating, Sprangletop, Brdd. ([2]; 250 g ai/ha): 100 | Plant response rating, Redstem ([3]; 32 g ai/ha): 85 | Plant response rating, Redstem ([3]; 64 g ai/ha): 95 | Plant response rating, Redstem ([3]; 125 g ai/ha): 100 | Plant response rating, Redstem ([3]; 250 g ai/ha): 100 | Plant response rating, Flatsedge, Rice ([4]; 32 g ai/ha): 85 | Plant response rating, Flatsedge, Rice ([4]; 64 g ai/ha): 100 | Plant response rating, Flatsedge, Rice ([4]; 125 g ai/ha): 100 | Plant response rating, Flatsedge, Rice ([4]; 250 g ai/ha): 100 | Plant response rating, Sedge, Umbrella ([5]; 32 g ai/ha): 98 | Plant response rating, Sedge, Umbrella ([5]; 64 g ai/ha): 100 | Plant response rating, Sedge, Umbrella ([5]; 125 g ai/ha): 100 | Plant response rating, Sedge, Umbrella ([5]; 250 g ai/ha): 100 | Plant response rating, Monochoria ([6]; 32 g ai/ha): 100 | Plant response rating, Monochoria ([6]; 64 g ai/ha): 100 | Plant response rating, Monochoria ([6]; 125 g ai/ha): 100 | Plant response rating, Monochoria ([6]; 250 g ai/ha): 100 | Plant response rating, Bulrush, Hardstem ([7]; 32 g ai/ha): 80 | Plant response rating, Bulrush, Hardstem ([7]; 64 g ai/ha): 100 | Plant response rating, Bulrush, Hardstem ([7]; 125 g ai/ha): 100 | Plant response rating, Bulrush, Hardstem ([7]; 250 g ai/ha): 100 | Plant response rating, Rice, Transplanted ([8]; 32 g ai/ha): 20 | Plant response rating, Rice, Transplanted ([8]; 64 g ai/ha): 60 | Plant response rating, Rice, Transplanted ([8]; 125 g ai/ha): 80 | Plant response rating, Rice, Transplanted ([8]; 250 g ai/ha): 100 | Plant response rating, Rice, Water Seeded ([9]; 32 g ai/ha): 45 | Plant response rating, Rice, Water Seeded ([9]; 64 g ai/ha): 100 | Plant response rating, Rice, Water Seeded ([9]; 125 g ai/ha): 100 | Plant response rating, Rice, Water Seeded ([9]; 250 g ai/ha): 100 | Plant response rating, Barnyardgrass ([10]; 32 g ai/ha): 0 | Plant response rating, Barnyardgrass ([10]; 64 g ai/ha): 75 | Plant response rating, Barnyardgrass ([10]; 125 g ai/ha): 100 | Plant response rating, Barnyardgrass ([10]; 250 g ai/ha): 100

FC(F)c1cc(-c2ccccc2Oc2ncc(Br)cn2)no1 [Compound 62, 5-bromo-2-[2-[5-(difluoromethyl)-3-isoxazolyl]phenoxy]pyrimidine]
melting point: 89 to 93 °C

Fc1cccc(Oc2ncc(Cl)cn2)c1-c1cc(C(F)F)no1 [Compound 144, 5-chloro-2-[2-[3-(difluoromethyl)-5-isoxazolyl]-3-fluorophenoxy]pyrimidine]
Plant response rating, Russian Thistle ([11]; 16 g ai/ha Postemergence): 85 | Plant response rating, Russian Thistle ([11]; 16 g ai/ha Preemergence): 15 | Plant response rating, Russian Thistle ([11]; 31 g ai/ha Postemergence): 90 | Plant response rating, Russian Thistle ([11]; 31 g ai/ha Preemergence): 65 | Plant response rating, Russian Thistle ([11]; 62 g ai/ha Postemergence): 95 | Plant response rating, Russian Thistle ([11]; 62 g ai/ha Preemergence): 100 | Plant response rating, Russian Thistle ([11]; 125 g ai/ha Postemergence): 98 | Plant response rating, Russian Thistle ([11]; 125 g ai/ha Preemergence): 100

Fc1cccc(Oc2ncc(Br)cn2)c1-c1cc(C(F)F)no1 [Compound 145, 5-bromo-2-[2-[3-(difluoromethyl)-5-isoxazolyl]-3-fluorophenoxy]pyrimidine]
Plant response rating, Russian Thistle ([11]; 16 g ai/ha Postemergence): 80 | Plant response rating, Russian Thistle ([11]; 16 g ai/ha Preemergence): 0 | Plant response rating, Russian Thistle ([11]; 31 g ai/ha Postemergence): 85 | Plant response rating, Russian Thistle ([11]; 31 g ai/ha Preemergence): 10 | Plant response rating, Russian Thistle ([11]; 62 g ai/ha Postemergence): 90 | Plant response rating, Russian Thistle ([11]; 62 g ai/ha Preemergence): 60 | Plant response rating, Russian Thistle ([11]; 125 g ai/ha Postemergence): 100 | Plant response rating, Russian Thistle ([11]; 125 g ai/ha Preemergence): 100
